In ChEMBL document CHEMBL1151152, “7-deoxy-6-epi-castanospermine, a trihydroxyindolizidine alkaloid glycosidase inhibitor from Castanospermum australe” (J Nat Prod, 1990):
Activity calls are given as the source filed them. The rule behind the calls is not given here.

Tests used:
[1] = tested on: Aspergillus niger; assay: Inhibition of Aspergillus niger alpha-galactosidase up to 1 mM
[2] = tested on: Saccharomyces cerevisiae; assay: Inhibition of yeast alpha-glucosidase at 1 mM
[3] = tested on: Prunus dulcis; assay: Inhibition of almond beta-glucosidase up to 1 mM
[4] = tested on: Aspergillus niger; assay: Inhibition of Aspergillus niger amyloglucosidase at 230 uM by competitive inhibition-based kinetic assay
[5] = tested on: Aspergillus niger; assay: Inhibition of Aspergillus niger amyloglucosidase by competitive inhibition-based kinetic assay
[6] = tested on: Vigna radiata var. radiata; assay: Inhibition of mung bean seedlings glucosidase 1 at 1 mM
[7] = tested on: Canavalia ensiformis; assay: Inhibition of jack bean alpha-mannosidase up to 1 mM
[8] = tested on: Aspergillus niger; assay: Inhibition of Aspergillus niger beta-xylosidase up to 1 mM
[9] = tested on: Aspergillus niger; assay: Inhibition of Aspergillus niger alpha-mannosidase up to 1 mM
[10] = target: T1, Beta-glucuronidase (Bos taurus) (UniProt A3KMY8); assay: Inhibition of bovine liver beta-glucuronidase up to 1 mM
T1 sequence (whole entry): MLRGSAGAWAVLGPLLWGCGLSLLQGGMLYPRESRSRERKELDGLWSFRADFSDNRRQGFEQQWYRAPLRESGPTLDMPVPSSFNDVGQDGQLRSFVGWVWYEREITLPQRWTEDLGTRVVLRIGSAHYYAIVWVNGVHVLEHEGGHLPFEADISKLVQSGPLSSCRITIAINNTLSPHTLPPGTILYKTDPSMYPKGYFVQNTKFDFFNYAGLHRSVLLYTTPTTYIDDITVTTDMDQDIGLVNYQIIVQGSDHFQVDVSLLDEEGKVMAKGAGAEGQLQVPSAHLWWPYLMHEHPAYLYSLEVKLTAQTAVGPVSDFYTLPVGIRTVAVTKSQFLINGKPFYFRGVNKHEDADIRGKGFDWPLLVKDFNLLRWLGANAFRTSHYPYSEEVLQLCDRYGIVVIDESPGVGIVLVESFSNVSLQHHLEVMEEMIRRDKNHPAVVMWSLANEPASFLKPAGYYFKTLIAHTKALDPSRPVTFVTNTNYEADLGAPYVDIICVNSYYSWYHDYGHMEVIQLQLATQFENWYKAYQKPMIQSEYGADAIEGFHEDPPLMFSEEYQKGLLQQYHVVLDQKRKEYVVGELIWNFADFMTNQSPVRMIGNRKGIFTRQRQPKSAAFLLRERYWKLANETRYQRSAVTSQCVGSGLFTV

[11] = tested on: Vigna radiata var. radiata; assay: Inhibition of mung bean seedlings glucosidase 1
[12] = species on record: Bos taurus; assay: Inhibition of bovine kidney alpha-L-fucosidase up to 1 mM
[13] = species on record: Bos taurus; assay: Inhibition of bovine epididymis beta-N-acetylglucosaminidase B up to 1 mM
[14] = target: Sucrase-isomaltase, intestinal (Rattus norvegicus) (UniProt P23739); assay: Inhibition of Sprague-Dawley rat small intestine sucrase
Chain of Sucrase-isomaltase, intestinal (Rattus norvegicus) (P23739 1-1013 limits assumed): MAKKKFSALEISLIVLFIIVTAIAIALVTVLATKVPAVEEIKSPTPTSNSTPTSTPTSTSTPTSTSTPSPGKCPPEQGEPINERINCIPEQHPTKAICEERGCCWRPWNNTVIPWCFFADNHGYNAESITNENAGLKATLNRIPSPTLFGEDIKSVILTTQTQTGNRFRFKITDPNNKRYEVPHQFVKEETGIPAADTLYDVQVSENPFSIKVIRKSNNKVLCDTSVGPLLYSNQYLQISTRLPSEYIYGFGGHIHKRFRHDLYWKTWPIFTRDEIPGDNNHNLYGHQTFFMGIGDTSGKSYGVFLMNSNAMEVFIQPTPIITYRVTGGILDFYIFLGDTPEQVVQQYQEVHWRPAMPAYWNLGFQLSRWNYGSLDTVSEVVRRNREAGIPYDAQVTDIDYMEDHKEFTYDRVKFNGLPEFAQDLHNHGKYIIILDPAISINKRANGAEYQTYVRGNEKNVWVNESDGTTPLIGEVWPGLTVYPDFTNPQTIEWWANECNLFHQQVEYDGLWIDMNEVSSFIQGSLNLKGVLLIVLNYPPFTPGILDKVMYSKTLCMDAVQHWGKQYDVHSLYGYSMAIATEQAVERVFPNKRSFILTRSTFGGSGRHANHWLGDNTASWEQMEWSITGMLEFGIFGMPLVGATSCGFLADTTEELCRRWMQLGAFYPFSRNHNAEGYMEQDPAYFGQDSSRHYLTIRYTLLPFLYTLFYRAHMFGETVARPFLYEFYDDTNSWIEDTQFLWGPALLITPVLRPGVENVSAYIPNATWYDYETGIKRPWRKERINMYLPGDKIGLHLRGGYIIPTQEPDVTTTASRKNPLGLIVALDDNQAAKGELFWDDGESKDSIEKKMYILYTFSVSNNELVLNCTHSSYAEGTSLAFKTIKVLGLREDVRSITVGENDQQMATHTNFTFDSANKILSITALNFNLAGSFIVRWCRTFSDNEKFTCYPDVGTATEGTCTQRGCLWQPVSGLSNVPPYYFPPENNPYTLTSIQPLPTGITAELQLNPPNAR
Chain of Sucrase-isomaltase, intestinal (Rattus norvegicus) (P23739 1014-1841 limits assumed): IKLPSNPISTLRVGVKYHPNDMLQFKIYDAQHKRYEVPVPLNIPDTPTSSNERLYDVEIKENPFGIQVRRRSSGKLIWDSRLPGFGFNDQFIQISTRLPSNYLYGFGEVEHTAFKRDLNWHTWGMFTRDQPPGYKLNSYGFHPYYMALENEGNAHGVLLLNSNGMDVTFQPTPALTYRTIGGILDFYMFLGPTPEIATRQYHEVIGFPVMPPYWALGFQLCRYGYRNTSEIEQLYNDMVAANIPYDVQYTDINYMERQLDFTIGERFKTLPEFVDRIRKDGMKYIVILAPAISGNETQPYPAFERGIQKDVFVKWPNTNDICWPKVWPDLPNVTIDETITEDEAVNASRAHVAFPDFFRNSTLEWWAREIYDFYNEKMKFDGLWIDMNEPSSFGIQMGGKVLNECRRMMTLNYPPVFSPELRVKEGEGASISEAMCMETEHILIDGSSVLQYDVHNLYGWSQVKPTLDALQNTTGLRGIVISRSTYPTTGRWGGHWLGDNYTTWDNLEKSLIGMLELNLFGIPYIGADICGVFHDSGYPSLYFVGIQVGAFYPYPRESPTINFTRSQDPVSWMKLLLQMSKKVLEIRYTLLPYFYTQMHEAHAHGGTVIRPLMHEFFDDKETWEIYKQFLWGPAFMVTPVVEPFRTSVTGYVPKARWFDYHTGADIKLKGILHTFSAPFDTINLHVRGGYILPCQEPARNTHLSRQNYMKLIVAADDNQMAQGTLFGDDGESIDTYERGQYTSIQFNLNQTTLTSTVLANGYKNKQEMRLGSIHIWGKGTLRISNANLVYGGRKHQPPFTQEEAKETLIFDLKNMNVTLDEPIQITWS

[15] = species on record: Bos taurus; assay: Inhibition of bovine liver beta-galactosidase at 1 mM
[16] = tested on: Saccharomyces cerevisiae; assay: Inhibition of yeast alpha-glucosidase
[17] = target: Sucrase-isomaltase, intestinal (Rattus norvegicus) (UniProt P23739); assay: Inhibition of Sprague-Dawley rat small intestine sucrase at 1 mM
[18] = species on record: Bos taurus; assay: Inhibition of bovine liver beta-galactosidase
[19] = tested on: Vigna radiata var. radiata; assay: Inhibition of mung bean seedlings glucosidase 2 up to 1 mM
[20] = tested on: Aspergillus niger; assay: Inhibition of Aspergillus niger amyloglucosidase at 20 uM by competitive inhibition-based kinetic assay
[21] = tested on: Aspergillus niger; assay: Inhibition of Aspergillus niger amyloglucosidase at 7 uM by competitive inhibition-based kinetic assay

O[C@H]1C[C@H](O)[C@H]2[C@@H](O)CCN2C1
Activity [1]: inactive
inhibition [2]: 50%
Activity [3]: inactive
inhibition [4]: 50%
Activity [5]: Active
inhibition [6]: 35%
Activity [7]: inactive
Activity [8]: inactive
Activity [9]: inactive
Activity [10]: inactive
Activity [11]: Active
Activity [12]: inactive
Activity [13]: inactive
Activity [14]: Active
inhibition [15]: 20%
Activity [16]: Active
inhibition [17]: 30%
Activity [18]: Active
Activity [19]: inactive

O[C@H]1[C@H](O)[C@H](O)CN2CC[C@H](O)[C@H]12
Activity [5]: Active
inhibition [20]: 50%

O[C@H]1[C@H](O)[C@@H](O)CN2CC[C@H](O)[C@H]12
Activity [5]: Active
inhibition [21]: 50%
